Results taken from PubChem BioAssay (NCI).
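1) Cells in 96-well plates. 2) Compound, 48 h, 5 concentrations. 3) Linear interpolation between surrounding doses. 4) Unreached endpoint = highest concentration. GI50 = concentration required for 50% inhibition of growth. At the TGI there is no net growth.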 *1 amine or outer side, *2 acyl side, *3 side chain or, on linkers, in order; H or OH if unused. Where a SMILES comes first, the peptide text is derived from it. Bridges are numbered along the chain shown (N, C = ends). Roman numbers before positions name the chains, in order. [ ]: non-standard residue; d: D form. Actinocin(9to1) = Cc1c2oc3c(C)ccc(C(=O)[*:1])c3nc-2c(C(=O)[*:2])c(N)c1=O; NMeV = CN[CH](C(=O)O)C(C)C; Sar = CNCC(=O)O

How the values were obtained:
Experiment in all cases: growth of human tumour cells (NCI), 48 h
SK-MEL-28 melanoma = system: SK-MEL-28 melanoma
OVCAR-8 ovarian = system: OVCAR-8 ovarian
CAKI-1 renal = system: CAKI-1 renal
HS 578T breast = system: HS 578T breast
SW-620 colon = system: SW-620 colon
HT29 colon = system: HT29 colon
HOP-62 NSCLC = system: HOP-62 NSCLC
OVCAR-4 ovarian = system: OVCAR-4 ovarian

Compound | GI50 (SK-MEL-28 melanoma) [nM] | TGI (SK-MEL-28 melanoma) [µM] | GI50 (OVCAR-8 ovarian) [nM] | GI50 (CAKI-1 renal) [nM] | GI50 (HS 578T breast) [nM] | GI50 (SW-620 colon) [nM] | TGI (SW-620 colon) [µM] | GI50 (HT29 colon) [nM] | GI50 (HOP-62 NSCLC) [nM] | TGI (HOP-62 NSCLC) [µM] | GI50 (OVCAR-4 ovarian) [nM] | TGI (OVCAR-4 ovarian) [µM] | TGI (OVCAR-8 ovarian) [µM] | TGI (CAKI-1 renal) [µM] | TGI (HS 578T breast) [µM] | TGI (HT29 colon) [µM]
Cc1c2oc3c(C)ccc(C(=O)OC(C)C4NC(=O)C(C(C)C)N(C)C(=O)CN(C)C(=O)C5CCCN5C(=O)C(C(C)C)NC4=O)c3nc-2c(C(=O)OC(C)C2NC(=O)C(C(C)C)N(C)C(=O)CN(C)C(=O)C3CCCN3C(=O)C(C(C)C)NC2=O)c(N)c1=O (stereo unspecified) (I: cyclo([Sar][NMeV]TVP) / II: cyclo([Sar][NMeV]TVP); linker I:3-II:3 via Actinocin(9to1); configuration not given here) | < 10 | 0.0307 | < 10 | 59.6 | 19.2 | < 10 | 17.7 | < 10 | < 10 | 0.0883 | 14 | 2.03 | – | – | – | –
CCN(CC)CCC(=O)OC1C(C)=CC(C)C(=O)CC(C(C)CC2CCC(O)C(OC)C2)OC(=O)C2CCCCN2C(=O)C(=O)[C@@]2(O)OC(CCC2C)CC(OC)\C(C)=C/C=C/C=C/C(C)CC(C)C(=O)C1OC (stereo partly specified) | – | 19.3 | – | – | – | – | 25.3 | – | – | 21.1 | – | 2.27 | 22.5 | 21.5 | 13.7 | 19.9
COc1cc(OC)c(/C=C/C(=O)c2ccc(Nc3ncnc4ccccc34)cc2)c(OC)c1 | 940 | 3.03 | 1340 | 1310 | 725 | 403 | 2.64 | 364 | 966 | 2.32 | 1210 | 3.05 | 3.54 | 15.2 | 5.66 | 1.39
Cc1c(NC(=O)CCl)c(=O)oc2c(C)c3occc(=O)c3cc12 | – | 39.2 | – | – | – | – | 30.6 | – | – | 29.8 | – | 25.6 | 43.2 | 25.3 | 59.6 | 35.3
COc1ccc(-c2nsc3c2NC(=O)CC3c2ccc3c(c2)OCCO3)cc1 (stereo unspecified) | 2700 | > 100 | 1020 | 429 | 398 | 384 | > 100 | 419 | 585 | > 100 | 2860 | > 100 | > 100 | > 100 | > 100 | > 55.5
O=C(O)C(Br)C(Br)C(=O)O (stereo unspecified) | – | > 100 | – | – | – | – | > 100 | – | – | > 100 | – | > 100 | > 100 | > 100 | > 100 | > 100
COc1cccc(-n2ncc3c(N/N=C/c4ccc(C)cc4)ncnc32)c1 | > 25000 | > 25 | > 25000 | > 25000 | > 17400 | > 25000 | > 25 | 1890 | > 25000 | > 25 | > 25000 | > 25 | > 25 | > 25 | > 25 | > 25
COC12C=C/C(=C(/C(=O)OCCSc3ccnn3C)C(=O)CCCCCCCCC3(OC)C=C/C(=C(/C(=O)OCCSc4ccnn4C)C(=O)CCCCCCCC1)O3)O2 | 1090 | 8.24 | 1000 | 1180 | 1230 | 1070 | 5.38 | 1250 | 950 | 2.81 | 837 | 2.5 | 6.79 | > 32.5 | > 32.5 | > 32.5
CCNc1cc2oc(=O)cc(C(F)(F)F)c2cc1C | – | > 100 | – | – | – | – | > 100 | – | – | > 100 | – | > 100 | > 100 | > 100 | > 100 | > 100
Cc1ccc(-c2c(C#N)[n+](=O)c3cc(F)c(F)cc3n2[O-])cc1 | 20500 | 38.4 | 20800 | 2480 | 25300 | 3900 | 16.1 | 24700 | 5260 | 19.7 | 21400 | 41.2 | 40.3 | 5.74 | > 100 | 61
O=C(O)/C=C/c1ccc[c]([Sb](=[O])([OH])[OH])c1 | > 100000 | > 100 | > 100000 | > 100000 | > 100000 | > 100000 | > 100 | > 100000 | > 100000 | > 100 | > 100000 | > 100 | > 100 | > 100 | > 100 | > 100
COc1ccc(C(C#N)=C2C=CC(=NO)C=C2)cc1 | 28700 | 86.7 | 10200 | 4880 | 2900 | 2090 | 4.39 | 3590 | 2470 | 6.5 | 5850 | 19.6 | 22.9 | 15.1 | 20.3 | 12.5
